# According to patent US11000033B2, “Ketone or oxime compound, and herbicide” (NISSAN CHEMICAL CORPORATION, priority 2014, dated 2021):
# How the values were obtained:
# Type in all cases: in vivo
# [1] = tested on: Echinochloa crus-galli var. crus-galli; experiment: Test Example 4: herbicidal effect by soil treatment (symbol H); details: application herbicide amount 320 g/ha
# In short: (§1)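 Seeds were sown in sterilized diluvial soil, covered with about 1.5 cm of soil, and the soil surface was sprayed with a water-diluted emulsion of the compound at a predetermined rate. Plants grew in a greenhouse at 25° C. to 30° C.; effects were scored visually 3 weeks after application.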
# corn [2] = experiment: Test Example 4: effect on crop by soil treatment (symbol c); details: application herbicide amount 320 g/ha
# In short: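 Plants are raised in a greenhouse (25° C. to 30° C.) from spot-sown seed, which sits under about 1.5 cm of sterilized diluvial soil in a box shared with weed species.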
# Digitaria ciliaris = experiment: Test Example 5: herbicidal effect by foliage application, plastic box (symbol F); details: 320 g/ha, 3 weeks after application
# In short: (§2)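 Herbicide, formulated as an emulsion and diluted in water, is sprayed onto the aerial parts of 14-day seedlings. These were grown at 25° C. to 30° C. in sterilized diluvial soil; effects are graded after 3 weeks.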
# soybean = experiment: Test Example 5: effect on crop by foliage application, plastic box (symbol d); details: 320 g/ha, 3 weeks after application
# In short: (§3)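 Sterilized diluvial soil, plastic box (21 × 13 × 7 cm); spot sowing, ~1.5 cm soil cover; greenhouse 25–30° C.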
# Scirpus juncoides = experiment: Test Example 1: herbicidal activity, application before weed generation in submerged conditions (symbol B); details: application herbicide amount 320 g/ha
# In short: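 Steps: alluvial soil flooded to 4 cm; weed seeds sown together; rice seedlings (2.5 leaf) transplanted; diluted emulsion applied to water surface the same day as sowing; plants grown at 25–30 °C in greenhouse; herbicidal effect rated on a 0–5 scale at 3 weeks.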
# rapeseed = experiment: Test Example 5: effect on crop by foliage application, plastic box (symbol g); details: 320 g/ha, 3 weeks after application
# In short: as §3
# corn [3] = experiment: Test Example 5: effect on crop by foliage application, plastic box (symbol c); details: 320 g/ha, 3 weeks after application
# In short: as §3
# rice = experiment: Test Example 4: effect on crop by soil treatment (symbol b); details: application herbicide amount 320 g/ha
# In short: (§4)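 Sterilized diluvial soil, spot sowing, ~1.5 cm soil cover; greenhouse 25–30° C.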
# wheat [4] = experiment: Test Example 4: effect on crop by soil treatment (symbol e); details: application herbicide amount 320 g/ha
# In short: as §4
# [5] = tested on: Echinochloa crus-galli var. crus-galli; experiment: Test Example 3: herbicidal effect by foliage application, Wagner pot (symbol H); details: application herbicide amount 320 g/ha
# In short: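 Foliar spray of water-diluted emulsion formulation at a predetermined herbicide amount onto 14-day-old plants in flooded alluvial soil (water depth 0.1–0.5 cm), greenhouse 25–30 °C; rice sown alongside. Scored 3 wk post-application on set criteria.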
# Lolium multiflorum Lam. = experiment: Test Example 4: herbicidal effect by soil treatment (symbol K); details: application herbicide amount 320 g/ha
# In short: as §1
# Setaria viridis = experiment: Test Example 4: herbicidal effect by soil treatment (symbol G); details: application herbicide amount 320 g/ha
# In short: as §1
# wheat [6] = experiment: Test Example 5: effect on crop by foliage application, plastic box (symbol e); details: 320 g/ha, 3 weeks after application
# In short: as §3
# Apera spica-venti = experiment: Test Example 5: herbicidal effect by foliage application, plastic box (symbol L); details: 320 g/ha, 3 weeks after application
# In short: as §2
# Alopecurus myosuroides = experiment: Test Example 4: herbicidal effect by soil treatment (symbol J); details: application herbicide amount 320 g/ha
# In short: as §1
Compound,H (Echinochloa crus-galli var. crus-galli) herbicidal effect grade [1],c (corn) effect on crop grade (corn [2]),"F: Digitaria ciliaris, herbicidal effect grade (Digitaria ciliaris)","d: soybean, effect on crop grade (soybean)","Herbicidal effect grade, B: Scirpus juncoides (Scirpus juncoides)","g: rapeseed, effect on crop grade (rapeseed)","c: corn, effect on crop grade (corn [3])",b (directly sowed rice plant) effect on crop grade (rice),e (wheat) effect on crop grade (wheat [4]),"herbicidal effect on H (Echinochloa crus-galli var. crus-galli), grade 0-5 [5]",K (Lolium multiflorum Lam.) herbicidal effect grade (Lolium multiflorum Lam.),G (Setaria viridis) herbicidal effect grade (Setaria viridis),"e: wheat, effect on crop grade (wheat [6])","L: Apera spica-venti, herbicidal effect grade (Apera spica-venti)",J (Alopecurus myosuroides) herbicidal effect grade (Alopecurus myosuroides)
CON=C(C)CC1CC(OC(=O)C(C)(C)OC(C)=O)=C(c2c(C)cc(C)cc2C)C1=O (stereo not drawn) [1-034],5 (Herbicidal ratio of 90% or more (almost completely withered)),4 (Herbicidal ratio of 70% or higher and lower than 90%),5 (Herbicidal ratio of 90% or more (almost completely withered)),4 (Herbicidal ratio of 70% or higher and lower than 90%),4 (Herbicidal ratio of 70% or higher and lower than 90%),5 (Herbicidal ratio of 90% or more (almost completely withered)),4 (Herbicidal ratio of 70% or higher and lower than 90%),5 (Herbicidal ratio of 90% or more (almost completely withered)),4 (Herbicidal ratio of 70% or higher and lower than 90%),5 (Herbicidal ratio of 90% or more (almost completely withered)),5 (Herbicidal ratio of 90% or more (almost completely withered)),5 (Herbicidal ratio of 90% or more (almost completely withered)),5 (Herbicidal ratio of 90% or more (almost completely withered)),5 (Herbicidal ratio of 90% or more (almost completely withered)),5 (Herbicidal ratio of 90% or more (almost completely withered))
CON=C(C)CC1CC(OC(=O)C(C)(C)F)=C(c2c(C)cc(C)cc2C)C1=O (stereo not drawn) [1-039],5 (Herbicidal ratio of 90% or more (almost completely withered)),4 (Herbicidal ratio of 70% or higher and lower than 90%),5 (Herbicidal ratio of 90% or more (almost completely withered)),4 (Herbicidal ratio of 70% or higher and lower than 90%),5 (Herbicidal ratio of 90% or more (almost completely withered)),4 (Herbicidal ratio of 70% or higher and lower than 90%),4 (Herbicidal ratio of 70% or higher and lower than 90%),5 (Herbicidal ratio of 90% or more (almost completely withered)),4 (Herbicidal ratio of 70% or higher and lower than 90%),5 (Herbicidal ratio of 90% or more (almost completely withered)),5 (Herbicidal ratio of 90% or more (almost completely withered)),5 (Herbicidal ratio of 90% or more (almost completely withered)),5 (Herbicidal ratio of 90% or more (almost completely withered)),5 (Herbicidal ratio of 90% or more (almost completely withered)),5 (Herbicidal ratio of 90% or more (almost completely withered))
